Measured values: US12337001B2, “Neutral endopeptidase (NEP) and human soluble endopeptidase (hSEP) inhibitors to reduce detrimental effects of perfusion deficiency of parenchymal organs” (priority 2018, dated 2025)

Test system: rats subjected to transient bilateral occlusion of the common carotid artery (BCCA)
Experiment: Open field test of exploratory performance after transient bilateral occlusion of the common carotid artery (BCCA)
Assay type: in vivo, rat
Conditions: for Ambulation / Blocks (episodes of interest in blocks) / Defecation / Grooming / Rearing: 60 mg/kg/d s.c. osmotic minipump, open field 5 min, x ± SEM
[1] = BCCA + (6) group, 60 mg/kg/d, 5 days after BCCA
[2] = BCCA + (6): BCCA 30 min, 5 days after BCCA
[3] = Control + (6) group (reference = 100)
[4] = Control + (6): sham-operated Wistar rats

O=C(O)CN1C(=O)[C@@H](NC(=O)C2(C[C@@H](CCc3ccccc3)C(=O)O)CCCC2)CCc2ccccc21 [Compound (6), (2R)-2-{[1-({[(3S)-1-(carboxymethyl)-2-oxo-2,3,4,5-tetrahydro-1H-1-benzazepin-3-yl]amino}carbonyl)cyclopentyl]methyl}-4-phenylbutanoic acid]
Ambulation, % of sham-operated controls [1]: 94.81% | Blocks (episodes of interest in blocks), % of sham-operated controls [1]: 103.80% | Defecation, % of sham-operated controls [1]: 82.54% | Grooming, % of sham-operated controls [1]: 112.83% | Rearing, % of sham-operated controls [1]: 104.62% | Ambulation [2]: 2741 ± 4.25 (n) | Blocks (episodes of interest in blocks) [2]: 7.64 ± 2.54 (n) | Defecation [2]: 1.04 ± 0.45 (n) | Grooming [2]: 5.98 ± 1.06 (n) | Rearing [2]: 12.01 ± 3.86 (n) | Ambulation, % of Control + (6) [3]: 100% | Blocks, % of Control + (6) [3]: 100% | Defecation, % of Control + (6) [3]: 100% | Grooming, % of Control + (6) [3]: 100% | Rearing, % of Control + (6) [3]: 100% | Ambulation [4]: 28.91 ± 5.13 (n) | Blocks (episodes of interest in blocks) [4]: 7.36 ± 2.85 (n) | Defecation [4]: 1.26 ± 0.45 (n) | Grooming [4]: 5.30 ± 1.57 (n) | Rearing [4]: 11.48 ± 3.51 (n) | Exploratory performance in rats subjected to BCCA (open field test, 60 mg/kg/d, result in words, 60 mg/kg/day): statistically significant improvement
